In PubChem BioAssay AID256 (DTP/NCI, 2004):
“And” between values parts separate entries of the source, which are not always exact repeats. Identical values can stand only once. Toxic doses and inconclusive results are not listed. The calls were made as follows: active = survival T/C of 150% or more; inactive = T/C below 125% in these data.

Tested on: CD2F1 mice, L1210 leukemia ip, survival T/C
Assay: NCI In Vivo Anticancer Drug Screen. Data for tumor model L1210 Leukemia (intraperitoneal) in CD2F1 (CDF1) mice
Settings: higher = longer survival
Procedure, shortened: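 Transplantable tumor in mice; compound-treated vs vehicle-treated groups. Read-out = treated/control ratio of the measured endpoint.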

[1] = endpoint: mean survival time, dose: 100.0 mg/kg/injection, schedule: Q04DX002 (ip), vehicle: saline
[2] = endpoint: mean survival time, dose: 200.0 mg/kg/injection, schedule: Q04DX002 (ip), vehicle: saline
[3] = endpoint: mean survival time, dose: 100.0 mg/kg/injection, schedule: Q01DX001 (ip), vehicle: saline with Tween-80
[4] = endpoint: mean survival time, dose: 200.0 mg/kg/injection, schedule: Q01DX001 (ip), vehicle: saline with Tween-80
[5] = endpoint: mean survival time, dose: 400.0 mg/kg/injection, schedule: Q01DX001 (ip), vehicle: saline with Tween-80
[6] = endpoint: mean survival time, dose: 100.0 mg/kg/injection, schedule: Q01DX001 (ip), vehicle: saline
[7] = endpoint: mean survival time, dose: 200.0 mg/kg/injection, schedule: Q01DX001 (ip), vehicle: saline
[8] = endpoint: mean survival time, dose: 400.0 mg/kg/injection, schedule: Q01DX001 (ip), vehicle: saline
[9] = endpoint: mean survival time, dose: 100.0 mg/kg/injection, schedule: Q04DX003 (ip), vehicle: saline with Tween-80
[10] = endpoint: mean survival time, dose: 200.0 mg/kg/injection, schedule: Q04DX003 (ip), vehicle: saline with Tween-80

Measured: T/C

CC(C)C1OCC(C)(C)C(c2ccccc2)O1 (stereo unspecified)
inactive: endpoint: mean survival time, dose: 50.0 mg/kg/injection, schedule: Q04DX002 (ip), vehicle: saline 93 % of control | [1] 96 % of control | [2] 110 % of control

CCCCNC(=O)c1ccc2c(c1)C(=O)N(CCCC)C2=O
inactive: endpoint: mean survival time, dose: 100.0 mg/kg/injection, schedule: Q04DX002 (ip), vehicle: saline with Tween-80 101 % of control | endpoint: mean survival time, dose: 200.0 mg/kg/injection, schedule: Q04DX002 (ip), vehicle: saline with Tween-80 104 % of control | endpoint: mean survival time, dose: 400.0 mg/kg/injection, schedule: Q04DX002 (ip), vehicle: saline with Tween-80 93 % of control

CN(C)N=Nc1cc(C(N)=O)cc(C(N)=O)c1
inactive: endpoint: mean survival time, dose: 18.75 mg/kg/injection, schedule: Q01DX009 (ip), vehicle: Klucel (hydroxypropylcellulose) (HPC) 101 % of control | endpoint: mean survival time, dose: 37.5 mg/kg/injection, schedule: Q01DX009 (ip), vehicle: Klucel (hydroxypropylcellulose) (HPC) 106 % of control | endpoint: mean survival time, dose: 75.0 mg/kg/injection, schedule: Q01DX009 (ip), vehicle: Klucel (hydroxypropylcellulose) (HPC) 124 % of control

COC1=[C]([Hg][Br])C(OC)OC1OC (stereo unspecified)
inactive: endpoint: mean survival time, dose: 5.0 mg/kg/injection, schedule: Q01DX001 (ip), vehicle: saline 98 % of control | endpoint: mean survival time, dose: 10.0 mg/kg/injection, schedule: Q01DX001 (ip), vehicle: saline 102 % of control | endpoint: mean survival time, dose: 20.0 mg/kg/injection, schedule: Q01DX001 (ip), vehicle: saline 110 % of control

COC1C(C)OC(OC2CC(C)(O)Cc3cc4c(c(O)c32)C(=O)c2c(O)cc3c(c2C4=O)OC2OC3(C)C(O)C(N(C)C)C2O)C(OC)C1(C)OC (stereo unspecified)
inactive: endpoint: mean survival time, dose: 0.6 mg/kg/injection, schedule: Q01DX009 (ip), vehicle: other 115 % of control | endpoint: mean survival time, dose: 1.25 mg/kg/injection, schedule: Q04DX003 (ip), vehicle: other 101 % of control | endpoint: mean survival time, dose: 2.5 mg/kg/injection, schedule: Q04DX003 (ip), vehicle: other 109 % of control | endpoint: mean survival time, dose: 5.0 mg/kg/injection, schedule: Q04DX003 (ip), vehicle: other 112 % of control | endpoint: mean survival time, dose: 10.0 mg/kg/injection, schedule: Q04DX003 (ip), vehicle: other 109 % of control | endpoint: mean survival time, dose: 20.0 mg/kg/injection, schedule: Q04DX003 (ip), vehicle: other 102 % of control

NC(=O)c1ncn(C2OCC(O)C(O)C2O)c1N (stereo unspecified)
inactive: endpoint: mean survival time, dose: 12.5 mg/kg/injection, schedule: Q01DX005 (ip), vehicle: water 87 % of control and 95 % of control | endpoint: mean survival time, dose: 25.0 mg/kg/injection, schedule: Q01DX005 (ip), vehicle: water 90 % of control and 93 % of control | endpoint: mean survival time, dose: 50.0 mg/kg/injection, schedule: Q01DX005 (ip), vehicle: water 92 % of control | endpoint: mean survival time, dose: 100.0 mg/kg/injection, schedule: Q01DX005 (ip), vehicle: water 98 % of control | endpoint: mean survival time, dose: 200.0 mg/kg/injection, schedule: Q01DX005 (ip), vehicle: water 98 % of control and 95 % of control | endpoint: median survival time, dose: 12.5 mg/kg/injection, schedule: Q01DX005 (ip), vehicle: water 96 % of control | endpoint: median survival time, dose: 25.0 mg/kg/injection, schedule: Q01DX005 (ip), vehicle: water 106 % of control | endpoint: median survival time, dose: 50.0 mg/kg/injection, schedule: Q01DX005 (ip), vehicle: water 102 % of control | endpoint: median survival time, dose: 100.0 mg/kg/injection, schedule: Q01DX005 (ip), vehicle: water 98 % of control | endpoint: median survival time, dose: 200.0 mg/kg/injection, schedule: Q01DX005 (ip), vehicle: water 108 % of control

Cc1nc(N)[nH]c(=O)c1CCCNCc1ccncc1
inactive: [3] 87 % of control | [4] 91 % of control | [5] 90 % of control

C1CC[N-]CC1.C1CC[N-]CC1.C1CC[N-]CC1.[Cl][Rh]([Cl])[Cl]
inactive: endpoint: mean survival time, dose: 12.5 mg/kg/injection, schedule: Q01DX009 (ip), vehicle: saline with Tween-80 99 % of control | endpoint: mean survival time, dose: 25.0 mg/kg/injection, schedule: Q01DX009 (ip), vehicle: saline with Tween-80 99 % of control

OCCOc1ccc2ccccc2c1
inactive: [3] 100 % of control | endpoint: mean survival time, dose: 100.0 mg/kg/injection, schedule: Q04DX003 (ip), vehicle: saline + alcohol 97 % of control | [4] 108 % of control | endpoint: mean survival time, dose: 200.0 mg/kg/injection, schedule: Q04DX003 (ip), vehicle: saline + alcohol 95 % of control | [5] 103 % of control | endpoint: mean survival time, dose: 400.0 mg/kg/injection, schedule: Q04DX003 (ip), vehicle: saline + alcohol 91 % of control

CCC(C)C(=O)O[C@H]1C(=O)O[C@@H]2C[C@H]3C(C)=CC(=O)[C@@H](O)[C@]3(C)[C@H]3[C@@H](O)[C@H](O)[C@@]4(C)OC[C@]32[C@@H]14 (stereo partly specified)
inactive: endpoint: mean survival time, dose: 2.0 mg/kg/injection, schedule: Q01DX009 (ip), vehicle: saline + alcohol 104 % of control | endpoint: mean survival time, dose: 4.0 mg/kg/injection, schedule: Q01DX009 (ip), vehicle: saline + alcohol 102 % of control

CCCn1c2ccccc2c2ccccc21
inactive: endpoint: mean survival time, dose: 100.0 mg/kg/injection, schedule: Q04DX003 (ip), vehicle: Klucel (hydroxypropylcellulose) (HPC) 91 % of control | endpoint: mean survival time, dose: 200.0 mg/kg/injection, schedule: Q04DX003 (ip), vehicle: Klucel (hydroxypropylcellulose) (HPC) 105 % of control | endpoint: mean survival time, dose: 400.0 mg/kg/injection, schedule: Q04DX003 (ip), vehicle: Klucel (hydroxypropylcellulose) (HPC) 96 % of control

CC(C)(C)CC(C)(C)c1ccc(OCCOc2ccccc2NS(=O)(=O)c2ccc(N)cc2)cc1
inactive: endpoint: mean survival time, dose: 100.0 mg/kg/injection, schedule: Q01DX001 (ip), vehicle: Klucel (hydroxypropylcellulose) (HPC) 98 % of control | endpoint: mean survival time, dose: 200.0 mg/kg/injection, schedule: Q01DX001 (ip), vehicle: Klucel (hydroxypropylcellulose) (HPC) 96 % of control

OCC1OC(Oc2ccc(O)cc2)C(O)C(O)C1O (stereo unspecified)
inactive: endpoint: mean survival time, dose: 50.0 mg/kg/injection, schedule: Q01DX009 (ip), vehicle: saline 103 % of control | [6] 101 % of control | endpoint: mean survival time, dose: 100.0 mg/kg/injection, schedule: Q01DX009 (ip), vehicle: saline 103 % of control | [7] 117 % of control | endpoint: mean survival time, dose: 200.0 mg/kg/injection, schedule: Q01DX009 (ip), vehicle: saline 95 % of control | [8] 101 % of control | endpoint: mean survival time, dose: 400.0 mg/kg/injection, schedule: Q01DX009 (ip), vehicle: saline 100 % of control

COc1cccc2c1CCC1(O)OC(=O)CC21 (stereo unspecified)
inactive: [6] 98 % of control | [7] 98 % of control | [8] 95 % of control

[Cl][Pt+2][Cl].[NH-]c1ccc(F)cc1.[NH-]c1ccc(F)cc1
inactive: endpoint: mean survival time, dose: 3.13 mg/kg/injection, schedule: Q04DX003 (ip), vehicle: distilled water + Tween-80 102 % of control | endpoint: mean survival time, dose: 6.25 mg/kg/injection, schedule: Q04DX003 (ip), vehicle: distilled water + Tween-80 104 % of control | endpoint: mean survival time, dose: 12.5 mg/kg/injection, schedule: Q04DX003 (ip), vehicle: distilled water + Tween-80 102 % of control | endpoint: mean survival time, dose: 25.0 mg/kg/injection, schedule: Q04DX003 (ip), vehicle: distilled water + Tween-80 108 % of control | endpoint: mean survival time, dose: 50.0 mg/kg/injection, schedule: Q04DX003 (ip), vehicle: distilled water + Tween-80 108 % of control | endpoint: mean survival time, dose: 100.0 mg/kg/injection, schedule: Q04DX003 (ip), vehicle: distilled water + Tween-80 93 % of control

Cc1nc(CCCCCCCC(=O)O)ccc1O
inactive: [1] 94 % of control | [2] 97 % of control | endpoint: mean survival time, dose: 400.0 mg/kg/injection, schedule: Q04DX002 (ip), vehicle: saline 109 % of control

Cc1ccc(N2CCN(CCCCCC(=O)O)CC2)cc1Cl
inactive: [9] 106 % of control | endpoint: mean survival time, dose: 176.0 mg/kg/injection, schedule: Q04DX003 (ip), vehicle: saline with Tween-80 117 % of control | [10] 104 % of control | endpoint: mean survival time, dose: 264.0 mg/kg/injection, schedule: Q04DX003 (ip), vehicle: saline with Tween-80 113 % of control

C/C(=C\Cl)CO
inactive: endpoint: mean survival time, dose: 50.0 mg/kg/injection, schedule: Q01DX009 (ip), vehicle: acetone 100 % of control | endpoint: mean survival time, dose: 100.0 mg/kg/injection, schedule: Q01DX009 (ip), vehicle: acetone 106 % of control

NC(=O)C(=O)N/N=C/c1ccc2c(c1)CCC2
inactive: endpoint: mean survival time, dose: 12.5 mg/kg/injection, schedule: Q04DX003 (ip), vehicle: saline with Tween-80 97 % of control | endpoint: mean survival time, dose: 25.0 mg/kg/injection, schedule: Q04DX003 (ip), vehicle: saline with Tween-80 94 % of control | endpoint: mean survival time, dose: 50.0 mg/kg/injection, schedule: Q04DX003 (ip), vehicle: saline with Tween-80 92 % of control

NC(=O)c1csc(COC(CO)CO)n1
inactive: endpoint: median survival time, dose: 15.38 mg/kg/injection, schedule: Q01DX009 (ip), vehicle: water 93 % of control | endpoint: median survival time, dose: 30.75 mg/kg/injection, schedule: Q01DX009 (ip), vehicle: water 97 % of control | endpoint: median survival time, dose: 61.5 mg/kg/injection, schedule: Q01DX009 (ip), vehicle: water 101 % of control | endpoint: median survival time, dose: 123.0 mg/kg/injection, schedule: Q01DX009 (ip), vehicle: water 100 % of control

CC(=O)COc1ccc(C)cc1
inactive: [9] 105 % of control | [10] 96 % of control | endpoint: mean survival time, dose: 400.0 mg/kg/injection, schedule: Q04DX003 (ip), vehicle: saline with Tween-80 98 % of control
